| Structure (SMILES) | melting point |
| --- | --- |
| ClCOc1ccc(Cl)cc1Br | 56 to 57.5 °C |
| CC(C)[C@H](S)C(=O)NC(C)(C)C(=O)N[C@@H](COCc1ccccc1)C(=O)O | 57 to 70 °C |
| Cn1nc(-c2ccc(NN=C(CCC(=O)O)c3ccc(O)cc3O)cc2)ccc1=O | 138 to 141 °C |
| COC(=O)Cn1cnc2c(C)c[nH]c2c1=O | 233 to 235 °C |
| COc1cc(C(=O)C#CCOC(C)=O)cc(OC)c1OC | 104 to 105 °C |
| COC(=O)N(C)CC#CCn1ccnc1 | 113 to 115 °C |
| CCC(COC(=O)c1ccc(N)c(Cl)c1OC)(c1cccs1)N(C)C (configuration not stated) | 110 to 112 °C |
| COc1ccc2c(c1)CC(C(=O)O)N2C(C)=O (configuration not stated) | 164 to 167 °C |
| O=C1NC(=Cc2cccc(Cl)c2)C(=O)C1=NO | 185 °C |
| Cc1nc(OC(C)C(=O)O)nn1-c1cccc(Cl)c1 (configuration not stated) | 101 to 103 °C |
| CC(C)c1cc(Sc2cc(C(C)C)c(O)c(C(C)C)c2)cc(C(C)C)c1O | 93.5 to 94.2 °C |
| Nc1nc(/C(=N/OCC(=O)OC(c2ccccc2)c2ccccc2)C(=O)Sc2nc3ccccc3s2)cs1 | 152 °C |
| O=C(O)Cc1c(-c2ccccc2)c2cc3c(cc2oc1=O)CCC3 | 216 to 218 °C |
| O=C(NCCn1ccnc1)c1cc2cc(Cl)ccc2[nH]1 | 167 to 169 °C |
| COC(=O)c1cc(Cl)ccc1-n1c(CCl)nc2ccccc2c1=O | 135 to 136 °C |
| Clc1ccc(C(c2ccccc2)c2cn[nH]c2)c(Cl)c1 (configuration not stated) | 131 °C |
| O=c1cc(Cl)nc2sc(SCc3ccccc3)nn12 | 138 to 140 °C |
| Cc1ccc(C(=O)c2cc(-c3ccccc3)c(N3CCOCC3)s2)cc1 | 198 °C |
| CCCC(=O)c1ccc(OC)c(C(=O)O)c1 | 105 to 106 °C |
| Cc1c(F)cc(C(=O)O)c(Cl)c1Cl | 179 to 180 °C |
| CCOP(=O)(OCC)C(CNC=NNC(=O)c1nc2ccccc2[nH]1)P(=O)(OCC)OCC | 143 °C |
| Cn1cncc1C(N)(c1ccc([N+](=O)[O-])cc1)c1ccc2c(c1)c(-c1cccc(Cl)c1)cc(=O)n2C (configuration not stated) | 258 °C |
| CCC(O)Cn1c(Cl)nc2ccccc21 (configuration not stated) | 126 °C |
| COc1ccc(C(=O)Nc2ccccc2CCCC2CCCCN2C)cc1 (configuration not stated) | 107 to 110 °C |
| COc1ccc(C(N)=S)c(OC)c1 | 115 to 118 °C |
| COc1cccc(N2CCN(C(=O)[C@](C)(C#N)[C@H](c3ccccc3OC)c3cccc4ccccc34)CC2)c1 | 147 to 148 °C |

| Structure (SMILES) | melting point |
| --- | --- |
| CCOC(=O)C(C)(C#N)Cc1cc([N+](=O)[O-])ccc1Cl (configuration not stated) | 72 to 74 °C |
| CCOC(=O)Cn1c(=O)[nH]c(=O)c2ccc(Cl)cc21 | 242 to 243 °C |
| CC1C(=O)NC(=O)NC1=O | 200 to 215 °C |
| CCOC(=O)C1C(=O)Nc2ccccc2SC1c1ccccc1 (configuration not stated) | 199 °C |
| CCCCSc1cc([N+](=O)[O-])cc2c1C(=O)OC2=O | 95 to 97 °C |
| CN1C(=O)CCC2=C1CCc1cc(F)ccc12 | 108 °C |
| COc1cc2nc(N)nc(-c3cc(Br)c(C)cc3Br)c2cc1OC | 282 to 284 °C |
| CC(CCc1cccc(Cl)c1)NC(=O)n1nc(N(C)C)n(N)c1=O (configuration not stated) | 74 °C |
| O=CN1CC2CCCc3c(C(=O)CCCl)ccc1c32 (configuration not stated) | 82 to 85 °C |
| CCN1CCN(C(=O)c2ccc([N+](=O)[O-])cc2C)CC1 | 96 to 99 °C |
| COc1ccc(C(C)(C)c2cc(C(C)(C)C)cc(-n3nc4ccc(C(F)(F)F)cc4n3)c2O)cc1 | 140 °C |
| COC(=O)c1cc(C(=O)N2CCC(O)CC2)cc(-n2cccc2)c1 | 158 to 159 °C |
| CC(=O)OC(c1ccc(NC(=O)c2ccc(-c3ccc(Cl)cc3)cc2)cc1)C1CCCNC1 (configuration not stated) | 200 to 203 °C |
| Cc1ccc2cccc(OCc3c(Cl)ccc(S(=O)(=O)N4CCC[C@H]4C(=O)NCCCNC(=O)c4ccc(C#N)cc4)c3Cl)c2n1 | 78 to 80 °C |
| Cc1ccccc1Nc1nc(N2CCCC2)nc2ccccc12 | 152 to 154 °C |
| CC(C)n1cc(C(=O)NCc2ccc(Cl)cc2)c(=O)c2cc(CCCO)sc21 | 84 to 92 °C |
| CC(=O)n1c(=O)oc2c3ncccc3ccc21 | 192 to 193 °C |
| CC(C)(C)c1cc(C(=O)Oc2ccc(C(=O)c3cc(C(C)(C)C)c(O)c(C(C)(C)C)c3)c(O)c2)cc(C(C)(C)C)c1O | 120 to 122 °C |
| CC(C)Cc1nn(C)c(=O)c2c(S(=O)(=O)CCCO)c(Cc3ccccc3)sc12 | 105 to 107 °C |
| O=C(O)C(CCCCCc1ccc(Cl)cc1)S(=O)(=O)c1cccc(Cl)c1 (configuration not stated) | 104 to 106 °C |
| COC(=O)C1=C(CO)NC(C)=C(C(=O)OC(C)C)C1c1ccccc1[N+](=O)[O-] (configuration not stated) | 135 to 137 °C |
| O=C1C(=O)c2ccccc2C2=C1SCC1(CCN(CC3CCCCO3)CC1)O2 (configuration not stated) | 135 to 137 °C |
| CC(C)=CC(=O)Nc1ccccc1CCN1CCN(c2nsc3ccccc23)CC1 | 52 °C |
| COc1ccc2c(c1)CN(Cc1ccccc1)CC(=O)N2 | 134 °C |
| COC(=O)C1=C(C)NC(C)=C(C(=O)OCCCCCCS(=O)c2nc(C)cs2)C1c1cccc([N+](=O)[O-])c1 (configuration not stated) | 81 to 83 °C |
| CC(C)(C)C(O)(COc1ccc(Cl)cc1)Cn1cncn1 (configuration not stated) | 57 °C |

| Structure (SMILES) | melting point |
| --- | --- |
| Cc1cc(NC(=O)C(C)(O)COc2ccc(OCCCl)cc2)ccc1[N+](=O)[O-] (configuration not stated) | 131 to 133 °C |
| CCCCc1cc2c(=O)n3cc(C(=O)OC)ccc3nc2s1 | 137 to 138 °C |
| CC1=C(C(=O)OC(C)C)C(c2cccc([N+](=O)[O-])c2)C(S(=O)(=O)N(C)C)=C(C)N1 (configuration not stated) | 136 to 138 °C |
| CNN(NC)C(=O)Nc1cccc2c1C(=O)c1c-2n[nH]c1-c1ccco1 | 202 °C |
| COc1ccc(OC)c2c1C(=O)OC2=O | 265 to 268 °C |
| CN(C)C(=O)c1cc(-c2nccs2)[nH]c1C(CC1CCOCC1)c1ccc(S(=O)(=O)C2CC2)cc1 (configuration not stated) | 180 to 182 °C |
| CC(C)[C@H](NC(=O)OCc1ccccc1)C(=O)N(CC(=O)O)C1CCCCCC1 | 48 to 51 °C |
| Cc1ccc(-c2nc(C(F)(F)F)oc2-c2ccc(S(C)(=O)=O)cc2)cc1 | 141 to 142 °C |
| CN(C)Cc1ccc2c(c1)Cc1c(-c3cccs3)n[nH]c1-2 | 204 to 206 °C |
| Clc1ccc(C(=Cn2cncn2)c2ccc(Cl)cc2)cc1 | 126 to 128 °C |
| O=C(O)c1cn(CCF)c2cc(Cl)c(F)cc2c1=O | 262 to 264 °C |
| Cc1ccc2nc(CN3CCN(c4ccc(Cl)cc4C#N)CC3)cn2c1 | 135 to 136 °C |
| Brc1ccc(CN2CCN(c3ccncc3)CC2)cc1 | 140 to 141 °C |
| CP(C)(=O)C1CC(c2ccccc2)=NO1 (configuration not stated) | 153 °C |
| CC1(C)CC(c2ncccn2)c2cc(C#N)ccc2O1 (configuration not stated) | 109 to 111 °C |
| CN(C)CCc1[nH]c2ccc(Br)cc2c1CSc1ccccc1 | 112 to 115 °C |
| COc1cccc(OC)c1C(=O)NCCSCc1cccc(Cl)c1 | 90 to 91 °C |
| O=C(O)CCn1cc(Cc2cccnc2)c2cc(NS(=O)(=O)c3ccc(F)cc3)ccc21 | 214 to 215 °C |
| CSc1ncc2ccc(Cl)nc2n1 | 201 to 203 °C |
| Cc1cc2c(c3ccc(=O)[nH]c13)OC(COS(C)(=O)=O)C2 (configuration not stated) | 200 to 203 °C |
| CN(C)C(=O)CCNC(=O)c1ccc(-c2ccc3nnn(Cc4ccc5ncccc5c4)c3n2)cc1F | 163 to 165 °C |
| CC=CCn1c(C)c(C)c2cnnc(OCc3ccc(Cl)cc3Cl)c21 | 133 to 134 °C |
| COC(=O)c1c(C(=O)OC)c(-c2ccc(OC)c(OC)c2)c2c(OC)c(OC)c(OC)cc2c1O | 178 to 179 °C |
| CCOC(=O)CCc1cc(CCC(=O)O)cc(Oc2cccnc2)c1 | 85 to 87 °C |
| CC(C)(C)COS(=O)(=O)c1ccc(Oc2c(Cl)cccc2[N+](=O)[O-])cc1 | 111 to 112 °C |
| CCCCCCCCCC(=O)Nc1ccccc1 | 65 to 66 °C |

| Structure (SMILES) | melting point |
| --- | --- |
| CC(=O)N1CCC(CCC(=O)c2ccc3c(c2)CCN3C(C)=O)CC1 | 148 to 149 °C |
| c1ccc(-c2nc3cnccc3[nH]2)cc1 | 225 to 226 °C |
| Nc1sc2c(c1C(=O)c1ccsc1)CCCC2 | 133 to 135 °C |
| Cc1ccc(OCc2c(F)cccc2Cl)c(NC(=S)Nc2ccc(Cl)cc2)n1 | 204 to 205 °C |
| CC(C)(C)NC(=O)c1ccc2ccccc2c1 | 155 to 159 °C |
| O=C(O)c1nn(-c2ccc(Cl)cc2Cl)c(-c2ccc(Cl)cc2)c1Br | 222 to 224 °C |
| COc1cc2cc(C3=NNC(=O)CC3)sc2cc1OC | 254 to 256 °C |
| COC(=O)c1csc(C)c1N | 78 °C |
| Cc1oc(-c2ccccc2)nc1COc1ccc(C=O)cc1 | 103 to 105 °C |
| CCCN1C(=O)CC(=O)N(c2ccccc2)c2cc(Cl)ccc21 | 192 to 194 °C |
| O=c1cc(-c2ccncc2)nc(-c2cccnc2)[nH]1 | > 300 °C |
| O=C(O)CCCCCC(=O)CCc1ccc(Cl)cc1 | 93 to 96 °C |
| CC(C(=O)c1ccco1)N1CCN(c2ccc(CO)c(Cl)c2)CC1 (configuration not stated) | 95 to 98 °C |
| CC1C[C@H]2[C@@H](O1)[C@@H](O)C(=O)N2Cc1ccccc1 (relative stereo) | 98 to 101 °C |
| Clc1ccc(C2(Cn3cncn3)CC(Cl)CO2)c(Cl)c1 (configuration not stated) | 97 °C |
| CCOC(=O)C(=CNc1ccn(Cc2ccccc2)n1)C(=O)OCC | 57 to 59 °C |
| CCOC(=O)C=Cc1ccc(OC)nc1 | 49 to 52 °C |
| CC(C)CCCC(C)C1CC(O)C2=C3C(O)CC4CC(OC(=O)c5ccccc5)CCC4(C)C3CCC21C (configuration not stated) | 178 to 179 °C |
| Cc1cc(F)ccc1-c1nc(N[C@H]2CC[C@H](O)CC2)nc2c1ccc(=O)n2-c1ccccc1F | 148 to 151 °C |
| CC1(C)CCC(=O)Nc2ccc(Nc3ncc(Cl)c(Nc4ccccc4-c4nccs4)n3)cc21 | 224 °C |
| NCC1=C(CCC(=O)O)CC=CC1 | 228 to 229 °C |
| Cc1cc2c(c(C)c1NC(=O)CC(C)(C)C)C(c1ccc(C(C)C)cc1)CS2 (configuration not stated) | 151 to 152 °C |
| CN(Cc1ccccc1)C1CCN(c2c(F)cc([N+](=O)[O-])c(F)c2CCl)C1 (configuration not stated) | 94 to 98 °C |
| COC(=O)c1ccc(NC(=O)c2cc(C(C)C)c(C(C)C)s2)cc1O | 180 to 181 °C |

From a melting point compilation (Tetko et al.; mined from patent text by program, amines drawn as free bases though some values may be those of a salt)
